Measured values published in ChEMBL document CHEMBL1201862, “PubChem BioAssay data set” (2004).
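Five concentrations, 48 hours, 96-well plates. GI50 is the concentration that inhibits growth by half.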 Calls of active or inactive are those of the source. No stated cut-off is given here; in the data, active = GI50 up to about 1.1 µM and inactive = higher.

Experiments:
Experiment in all cases: NCI tumour cell line growth inhibition, 48 h
786-0 = test system: 786-0
SW-620 = test system: SW-620
CAKI-1 = test system: CAKI-1
SNB-19 = test system: SNB-19
RPMI-8226 = test system: RPMI-8226
NCI-H522 = test system: NCI-H522
MDA-N = test system: MDA-N
CCRF-CEM = test system: CCRF-CEM
T47D = test system: T47D
COLO 205 = test system: COLO 205
SF-268 = test system: SF-268
OVCAR-4 = test system: OVCAR-4
HCT-116 = test system: HCT-116
SK-MEL-5 = test system: SK-MEL-5
IGROV-1 = test system: IGROV-1
Malme-3M = test system: Malme-3M
ACHN = test system: ACHN
RXF 393 = test system: RXF 393
UACC-62 = test system: UACC-62
SK-MEL-28 = test system: SK-MEL-28
HOP-62 = test system: HOP-62
UACC-257 = test system: UACC-257
SNB-75 = test system: SNB-75
OVCAR-8 = test system: OVCAR-8
MCF7 = test system: MCF7
TK-10 = test system: TK-10
PC-3 = test system: PC-3
M14 = test system: M14
HCC 2998 = test system: HCC 2998
SF-295 = test system: SF-295
K562 = test system: K562
HCT-15 = test system: HCT-15
SK-OV-3 = test system: SK-OV-3
NCI-H460 = test system: NCI-H460
SR = test system: SR
DU-145 = test system: DU-145
NCI/ADR-RES = test system: NCI/ADR-RES
MOLT-4 = test system: MOLT-4
SN12C = test system: SN12C
HOP-92 = test system: HOP-92
LOX IMVI = test system: LOX IMVI
EKVX = test system: EKVX
UO-31 = test system: UO-31
KM12 = test system: KM12
HT-29 = test system: HT-29
A549 = test system: A549
NCI-H226 = test system: NCI-H226
Hs-578T = test system: Hs-578T
MDA-MB-231 = test system: MDA-MB-231
U-251 = test system: U-251
NCI-H23 = test system: NCI-H23
SK-MEL-2 = test system: SK-MEL-2
OVCAR-3 = test system: OVCAR-3
MDA-MB-435 = test system: MDA-MB-435
SF-539 = test system: SF-539
OVCAR-5 = test system: OVCAR-5
HL-60 = test system: HL-60
A498 = test system: A498

## Cc1cc(=O)oc2c(CNC(C)C(=O)O)c(O)ccc12 (centres undefined)
786-0
  GI50: > 100 µM (inactive)
SW-620
  GI50: > 100 µM (inactive)
CAKI-1
  GI50: > 100 µM (inactive)
SNB-19
  GI50: > 100 µM (inactive)
RPMI-8226
  GI50: > 100 µM (inactive)
NCI-H522
  GI50: > 100 µM (inactive)
MDA-N
  GI50: > 100 µM (inactive)
CCRF-CEM
  GI50: > 100 µM (inactive)
T47D
  GI50: > 100 µM (inactive)
COLO 205
  GI50: > 100 µM (inactive)
SF-268
  GI50: > 100 µM (inactive)
OVCAR-4
  GI50: > 100 µM (inactive)
HCT-116
  GI50: 71.4 µM (inactive)
SK-MEL-5
  GI50: > 100 µM (inactive)
IGROV-1
  GI50: > 100 µM (inactive)
Malme-3M
  GI50: > 100 µM (inactive)
ACHN
  GI50: > 100 µM (inactive)
RXF 393
  GI50: > 100 µM (inactive)
UACC-62
  GI50: > 100 µM (inactive)
SK-MEL-28
  GI50: > 100 µM (inactive)
HOP-62
  GI50: > 100 µM (inactive)
UACC-257
  GI50: > 100 µM (inactive)
SNB-75
  GI50: > 100 µM (inactive)
OVCAR-8
  GI50: > 100 µM (inactive)
MCF7
  GI50: > 100 µM (inactive)
TK-10
  GI50: 95.7 µM (inactive)
PC-3
  GI50: > 100 µM (inactive)
M14
  GI50: > 100 µM (inactive)
HCC 2998
  GI50: > 100 µM (inactive)
SF-295
  GI50: > 100 µM (inactive)
K562
  GI50: > 100 µM (inactive)
HCT-15
  GI50: > 100 µM
SK-OV-3
  GI50: > 100 µM (inactive)
NCI-H460
  GI50: > 100 µM (inactive)
SR
  GI50: > 100 µM (inactive)
DU-145
  GI50: > 100 µM (inactive)
NCI/ADR-RES
  GI50: > 100 µM (inactive)
MOLT-4
  GI50: > 100 µM (inactive)
SN12C
  GI50: > 100 µM (inactive)
HOP-92
  GI50: 65.3 µM (inactive)
LOX IMVI
  GI50: > 100 µM (inactive)
EKVX
  GI50: > 100 µM (inactive)
UO-31
  GI50: 36.9 µM (inactive)
KM12
  GI50: > 100 µM (inactive)
HT-29
  GI50: > 100 µM (inactive)
A549
  GI50: > 100 µM (inactive)
NCI-H226
  GI50: > 100 µM (inactive)
Hs-578T
  GI50: > 100 µM (inactive)
MDA-MB-231
  GI50: > 100 µM (inactive)
U-251
  GI50: > 100 µM (inactive)
NCI-H23
  GI50: > 100 µM (inactive)
SK-MEL-2
  GI50: > 100 µM (inactive)
OVCAR-3
  GI50: > 100 µM (inactive)
MDA-MB-435
  GI50: > 100 µM (inactive)
SF-539
  GI50: > 100 µM (inactive)
OVCAR-5
  GI50: > 100 µM (inactive)
HL-60
  GI50: > 100 µM (inactive)

## O=C1c2ccccc2-c2ccc(O)cc21
786-0
  GI50: 36.1 µM (inactive)
SW-620
  GI50: 42.3 µM (inactive)
CAKI-1
  GI50: 14.8 µM (inactive)
SNB-19
  GI50: 23.9 µM (inactive)
RPMI-8226
  GI50: 39 µM (inactive)
NCI-H522
  GI50: 16.1 µM (inactive)
T47D
  GI50: 18.4 µM (inactive)
COLO 205
  GI50: 19.7 µM (inactive)
SF-268
  GI50: 19.1 µM (inactive)
OVCAR-4
  GI50: 20.7 µM (inactive)
HCT-116
  GI50: 45.6 µM (inactive)
SK-MEL-5
  GI50: 19.4 µM (inactive)
IGROV-1
  GI50: 18.6 µM (inactive)
Malme-3M
  GI50: 23.4 µM (inactive)
ACHN
  GI50: 16.6 µM (inactive)
RXF 393
  GI50: 10.4 µM (inactive)
UACC-62
  GI50: 15.3 µM (inactive)
SK-MEL-28
  GI50: 19.7 µM (inactive)
HOP-62
  GI50: 36.4 µM (inactive)
UACC-257
  GI50: 19.6 µM (inactive)
SNB-75
  GI50: 29 µM (inactive)
OVCAR-8
  GI50: 20.2 µM (inactive)
MCF7
  GI50: 21.2 µM (inactive)
TK-10
  GI50: 24.5 µM (inactive)
PC-3
  GI50: 17.2 µM (inactive)
M14
  GI50: 26.1 µM (inactive)
SF-295
  GI50: 22.9 µM (inactive)
K562
  GI50: 31.4 µM (inactive)
HCT-15
  GI50: 21.6 µM
NCI-H460
  GI50: 20.1 µM (inactive)
SR
  GI50: 12 µM (inactive)
DU-145
  GI50: 20.1 µM (inactive)
NCI/ADR-RES
  GI50: 31.8 µM (inactive)
MOLT-4
  GI50: 16.1 µM (inactive)
SN12C
  GI50: 15.7 µM (inactive)
LOX IMVI
  GI50: 40.1 µM (inactive)
EKVX
  GI50: 16.4 µM (inactive)
UO-31
  GI50: 17.2 µM (inactive)
KM12
  GI50: 16.8 µM (inactive)
HT-29
  GI50: 30.7 µM (inactive)
A549
  GI50: 25.9 µM (inactive)
NCI-H226
  GI50: 26.3 µM (inactive)
Hs-578T
  GI50: 33.6 µM (inactive)
A498
  GI50: 21.5 µM (inactive)
MDA-MB-231
  GI50: 16.9 µM (inactive)
U-251
  GI50: 26.7 µM (inactive)
NCI-H23
  GI50: 16.9 µM (inactive)
SK-MEL-2
  GI50: 21.5 µM (inactive)
MDA-MB-435
  GI50: 20.2 µM (inactive)
SF-539
  GI50: 22.9 µM (inactive)
OVCAR-5
  GI50: 26.7 µM (inactive)
HL-60
  GI50: 23.2 µM (inactive)

## CC(=O)O[C@H]1C(=O)[C@@]2(C)C(C(OC(=O)c3ccccc3)[C@]3(O)CC(OC(=O)[C@H](OC(=O)CCC(=O)O)C(NC(=O)c4ccccc4)c4ccccc4)C(C)=C1C3(C)C)C1(OC(C)=O)COC1C[C@@H]2OC(=O)CCC(=O)O (some centres undefined)
T47D
  GI50: 0.822 µM (active)
OVCAR-4
  GI50: > 79.4 µM (inactive)
Malme-3M
  GI50: 11.6 µM (inactive)
SK-MEL-28
  GI50: 5.6 µM (inactive)
UO-31
  GI50: 83.9 µM (inactive)
